Consider one compound from patent US9587002B2, “Sequence of nucleotides and peptides GSE 24.2 of dyskerin, which can induce telomerase activity, method for obtaining same, therapeutic compositions and applications thereof” (CONSEJO SUPERIOR DE INVESTIGACIONES CIENTIFICAS, priority 2005, dated 2017).

For one experiment, the system named is dyskerin. Kind of experiment: RT-PCR expression of dyskerin in 293T cell lines after cisplatin. It is filed as cell-based, human. Conditions: pLNCX and pLNCX 24.2 cells; 3 μg/ml, 3 and 7 days. The method, then: (§1) FIG. 7.—Expression levels of different genes related to telomerase in 293T cells: pLNCX and 24.2 following treatment with cisplatin. The cells were seeded in 60-mm plates, treated with 3 μg/ml of cDDP following pre-treatment with 0.5 μg/ml of cisplatin for 3 days and, subsequently, collected at the times specified in the figure (3 and 7 days). Following the extraction of RNA, RT-PCR was performed with oligos specific for hTERT, hTR and dyskerin in order to study the expression levels of the messenger RNAs. As a starting RNA control, oligos for the amplification of GAPDH were used.
(§2) One of the explanations for the lower sensitivity of pLNCX 24.2 cells to cisplatin could be a change in the levels of some of the components of the telomerase complex. Therefore, the expression levels of different genes involved in the telomerase complex and the effect that cisplatin had on their expression were studied. To this end, the pLNCX and pLNCX 24.2 cells were pre-treated with 0.5 μg/ml and treated with 3 μg/ml of cisplatin for 3 and 7 days. Using oligos specific for hTR, hTERT and dyskerin, the expression levels of these genes and the effect of cisplatin on said expression were studied. […] This change in the sensitivity to cisplatin could explain, at least partially, the difference in sensitivity in the telomerase activity assays.
(§3) Expression of genes by RT-PCR. […]

Experiment [1] deals with T1, telomerase (Homo sapiens, UniProt O14746). The settings on record: different cell lines / G-quadruplex formation in telomeres; cited from earlier work.
The subject of a further experiment is hTR. Kind of experiment: RT-PCR expression of hTR in 293T cell lines after cisplatin. It is filed as cell-based, human. Conditions: pLNCX and pLNCX 24.2 cells; 3 μg/ml, 3 and 7 days. The method, then: as §1, §2, §3
For experiment [2], the target named is T1, telomerase. Kind of experiment: Telomerase activity (TRAP) of 293T cell lines treated with cisplatin. It is filed as cell-based. Also on record: endogenous in cells; host or cells: 293T cells stably transfected with empty pLNCX or pLNCX 24.2. The settings on record: 293T pLNCX cells; pre-treated 0.5 μg/ml 3 days, then 3 μg/ml, 7-day treatment. The method, then:
FIG. 5.—Telomerase activity of the 293T cell lines: pLNCX and 24.2 following treatment with cisplatin. The cells were seeded in 60-mm plates, pre-treated with 0.5 μg/ml of cisplatin for 3 days and subsequently treated with cisplatin at a dose of 3 μg/ml […]. The telomerase activity was measured by means of the Intergen TRAPeze assay. The experiment was performed 3 times, with similar results.
To this end, an assay of telomerase activity was performed using the TRAP method with the pLNCX and pLNCX 24.2 cell lines (FIG. 5), pre-treating them for 3 days with 0.5 μg/ml of cisplatin; subsequently, they were treated with 3 μg/ml of cisplatin for 3 and 7 days. […]
Telomerase activity assay based on the TRAP method Wright et al., 1995). The telomerase activity was measured using the TRAPeze telomerase detection kit (Intergen) in accordance with the instruction manual. The protein concentration of each extract was quantified by means of the Bradford method using the BIORAD reagent and after performing a PCR in accordance with the manual instructions; polyacrylamide gel electrophoresis was performed with the reaction products under non-denaturing conditions and, subsequently, it was stained with Ethidium bromide for 30 minutes.

For the next experiment, the system named is hTERT. Kind of experiment: RT-PCR expression of hTERT in 293T cell lines after cisplatin. The class given is cell-based, human. The settings on record: pLNCX cells; 3 μg/ml, 3 days of treatment. The method, then: as §1, §2, §3

T1 sequence (O14746 whole entry): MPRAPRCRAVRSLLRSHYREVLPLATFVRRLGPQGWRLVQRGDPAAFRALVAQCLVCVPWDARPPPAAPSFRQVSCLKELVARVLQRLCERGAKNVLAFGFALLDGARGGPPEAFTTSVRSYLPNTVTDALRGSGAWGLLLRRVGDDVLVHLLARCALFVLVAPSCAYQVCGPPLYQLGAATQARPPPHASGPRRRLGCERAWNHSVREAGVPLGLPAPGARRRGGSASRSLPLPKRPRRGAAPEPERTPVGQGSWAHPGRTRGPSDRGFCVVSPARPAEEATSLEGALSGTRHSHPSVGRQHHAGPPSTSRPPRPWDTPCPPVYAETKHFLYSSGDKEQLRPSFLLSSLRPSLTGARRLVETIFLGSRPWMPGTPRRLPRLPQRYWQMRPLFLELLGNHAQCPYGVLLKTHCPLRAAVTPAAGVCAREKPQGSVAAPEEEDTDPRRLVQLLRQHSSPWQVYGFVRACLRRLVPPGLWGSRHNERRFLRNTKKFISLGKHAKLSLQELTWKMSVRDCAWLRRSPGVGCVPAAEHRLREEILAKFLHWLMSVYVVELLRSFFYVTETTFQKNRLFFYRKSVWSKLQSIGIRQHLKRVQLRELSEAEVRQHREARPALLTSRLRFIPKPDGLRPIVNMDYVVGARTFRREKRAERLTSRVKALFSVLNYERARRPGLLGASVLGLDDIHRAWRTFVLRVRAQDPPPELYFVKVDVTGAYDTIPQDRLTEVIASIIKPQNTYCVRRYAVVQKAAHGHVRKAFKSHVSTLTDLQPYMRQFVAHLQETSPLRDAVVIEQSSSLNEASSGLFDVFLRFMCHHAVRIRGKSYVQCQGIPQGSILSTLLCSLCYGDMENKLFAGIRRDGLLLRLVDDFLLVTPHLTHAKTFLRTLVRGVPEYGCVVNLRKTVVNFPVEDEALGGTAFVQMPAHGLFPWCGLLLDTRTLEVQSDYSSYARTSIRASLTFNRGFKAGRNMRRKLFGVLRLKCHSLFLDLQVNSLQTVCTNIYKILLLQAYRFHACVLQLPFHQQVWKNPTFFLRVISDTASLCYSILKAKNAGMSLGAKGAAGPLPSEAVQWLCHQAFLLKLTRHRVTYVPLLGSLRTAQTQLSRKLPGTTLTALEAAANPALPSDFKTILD
T1 sequence (O60832 2-514 partner limits assumed): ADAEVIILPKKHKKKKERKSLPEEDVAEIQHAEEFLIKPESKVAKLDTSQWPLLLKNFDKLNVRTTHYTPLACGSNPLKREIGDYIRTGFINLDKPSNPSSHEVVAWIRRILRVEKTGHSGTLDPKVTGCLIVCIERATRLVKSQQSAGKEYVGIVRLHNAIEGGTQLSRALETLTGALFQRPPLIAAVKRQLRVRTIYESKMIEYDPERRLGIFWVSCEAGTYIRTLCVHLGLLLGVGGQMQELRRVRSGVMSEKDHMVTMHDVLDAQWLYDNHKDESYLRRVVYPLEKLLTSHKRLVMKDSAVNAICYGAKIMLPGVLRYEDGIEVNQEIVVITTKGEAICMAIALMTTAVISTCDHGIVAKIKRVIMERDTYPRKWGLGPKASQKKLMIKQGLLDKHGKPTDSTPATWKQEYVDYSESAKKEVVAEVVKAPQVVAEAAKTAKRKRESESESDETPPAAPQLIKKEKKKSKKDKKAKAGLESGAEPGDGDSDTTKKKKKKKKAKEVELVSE
T1 sequence (Q9NPE3 whole entry partner): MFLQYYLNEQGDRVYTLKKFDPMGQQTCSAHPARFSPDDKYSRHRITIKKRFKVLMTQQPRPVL
T1 sequence (Q9NX24 whole entry partner): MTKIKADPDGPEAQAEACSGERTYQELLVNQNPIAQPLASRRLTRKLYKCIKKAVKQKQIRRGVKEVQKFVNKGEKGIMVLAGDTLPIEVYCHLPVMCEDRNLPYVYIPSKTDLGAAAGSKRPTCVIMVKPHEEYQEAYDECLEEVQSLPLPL
T1 sequence (Q9NY12 whole entry partner): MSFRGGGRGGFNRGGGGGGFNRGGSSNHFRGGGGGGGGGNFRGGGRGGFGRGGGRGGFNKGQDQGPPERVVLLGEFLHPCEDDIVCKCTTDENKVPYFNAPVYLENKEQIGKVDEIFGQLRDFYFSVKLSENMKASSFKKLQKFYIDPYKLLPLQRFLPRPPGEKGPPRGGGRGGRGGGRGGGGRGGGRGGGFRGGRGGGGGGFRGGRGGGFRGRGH
T1 sequence (Q9BUR4 whole entry partner): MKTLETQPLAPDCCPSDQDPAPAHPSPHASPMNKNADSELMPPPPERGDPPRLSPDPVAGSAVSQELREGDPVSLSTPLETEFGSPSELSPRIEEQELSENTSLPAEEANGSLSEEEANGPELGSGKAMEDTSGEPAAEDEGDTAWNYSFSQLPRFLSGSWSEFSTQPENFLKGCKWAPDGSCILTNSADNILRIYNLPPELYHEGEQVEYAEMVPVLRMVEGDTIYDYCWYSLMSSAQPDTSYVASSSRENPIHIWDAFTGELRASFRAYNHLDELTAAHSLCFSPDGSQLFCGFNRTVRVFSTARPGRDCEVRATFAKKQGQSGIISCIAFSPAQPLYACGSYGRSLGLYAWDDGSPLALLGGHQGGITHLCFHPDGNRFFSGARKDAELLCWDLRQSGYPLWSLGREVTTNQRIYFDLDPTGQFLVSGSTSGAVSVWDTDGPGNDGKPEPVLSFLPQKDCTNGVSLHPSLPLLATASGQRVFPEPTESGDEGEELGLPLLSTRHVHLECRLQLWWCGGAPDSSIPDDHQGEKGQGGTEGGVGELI

Take `N.N.[Cl][Pt][Cl]` [cisplatin]: the “effect of cisplatin on dyskerin expression” value in the experiment with dyskerin is listed as “no effect”. On telomerase [1], the “inhibition of telomerase activity (literature)” value was “capable of inhibiting telomerase activity”. Moreover, in the experiment on hTR, the “effect of cisplatin on hTR expression” value is “no effect”. For the same compound, on telomerase [2], the “effect of cisplatin on telomerase activity” value was “caused inhibition of telomerase activity”. Also, the “effect of cisplatin on hTERT expression” value in the experiment with hTERT was “reduction in the expression of hTERT”.
